Results: PMC10977697 (PLOS ONE, 2024)
Where no end group is shown, it is not given here.

Tested on: HtrA1
Assay: not given
Assay type: binding, human
Settings: not given

For `CC[C@H](C)[C@@H]1NC(=O)[C@H](CO)NC(=O)[C@@H]2CSSC[C@@H]3NC(=O)[C@H](CO)NC(=O)CNC(=O)[C@H]([C@@H](C)O)NC(=O)[C@H](CSSC[C@H](N)C(=O)N[C@@H](CCCCN)C(=O)NCC(=O)N[C@@H](CCCCN)C(=O)NCC(=O)N[C@@H](C)C(=O)N[C@@H](CCCCN)C(=O)N2)NC(=O)[C@H](CSSC[C@@H](C(=O)O)NC(=O)[C@H](CCCCN)NC(=O)CNC(=O)[C@H](CO)NC(=O)[C@H](CCCNC(=N)N)NC3=O)NC(=O)[C@H](C(C)C)NC(=O)[C@H](CCCCN)NC(=O)[C@H](Cc2c[nH]c3ccccc23)NC(=O)[C@@H]2CCCN2C(=O)[C@H](Cc2ccc(O)cc2)NC(=O)[C@H](C(C)C)NC(=O)[C@H](CO)NC(=O)[C@H](Cc2c[nH]c3ccccc23)NC(=O)[C@H](CCC(N)=O)NC1=O` [HtrA1_CnTx83], the S/N was 16.1.

Same assay, conditions: ratio of signal for target protein over BSA background

“AFDCLGQCGRCDFHKLQCVAWLMYSFVRPYCNSSCTR (also: bicyclic or more (positions not given here)) [HtrA1 AVR9 53]” was tested, and the S/N was 7.3.

Tested on: ApoL1
Assay: Spot phage ELISA, ApoL1
Assay type: binding, human
Settings: ratio of signal for target protein over BSA background

Point of comparison: “GCSWKCKQDSDCLAGCVCKMSQQCG (also: bicyclic or more (positions not given here)) [ApoL1 EET I-II 45]”, S/N 4.7. Against it:
- GCRFWQWRCKQDSDCLAGCVCGWDRECG (also: bicyclic or more (positions not given here)) [ApoL1 EET I-II 32] — higher, 17.1
- GCYYKCKQDSDCLAGCVCRTSNMCG (also: bicyclic or more (positions not given here)) [ApoL1 EET I-II 17] — higher, 39.0
- GPTQSPFGQCGGIGYSGPTVCASGTTCQVLRPNFSWCLPGAS (also: bicyclic or more (positions not given here)) [ApoL1 CBD 1] — higher, 21.6

Tested on: Lgr5ECD-Fc
Assay: not given
Assay type: binding, human
Settings: ratio of signal for target protein over BSA background

Point of comparison: “GPTQSHYGLCGGIGYSGPTVCASGTTCQVLSPEFSQCLPGAS (also: bicyclic or more (positions not given here)) [Lgr5ECD-Fc CBD 10]”, S/N 23.6. Against it:
- GCASGYWWRMWFCKQDSDCLAGCVCGPNGFCG (also: bicyclic or more (positions not given here)) [Lgr5ECD-Fc EET I-II 15] — lower, 14.1
- GCAVYQVYCKQDSDCLAGCVCAVKFHCG (also: bicyclic or more (positions not given here)) [Lgr5ECD-Fc EET I-II 12] — lower, 21.6
- GCGFWWKYWFCKQDSDCLAGCVCGPNGFCG (also: bicyclic or more (positions not given here)) [Lgr5ECD-Fc EET I-II 20] — lower, 6.1
- GCGFWYMQWFCKQDSDCLAGCVCDPMGNCG (also: bicyclic or more (positions not given here)) [Lgr5ECD-Fc EET I-II 6] — higher, 36.2
- GCGWWYRQWFCKQDSDCLAGCVCLETPECG (also: bicyclic or more (positions not given here)) [Lgr5ECD-Fc EET I-II 4] — higher, 40.2
- GCGYWFYEWFCKQDSDCLAGCVCDPNGFCG (also: bicyclic or more (positions not given here)) [Lgr5ECD-Fc EET I-II 11] — lower, 21.7
- GCGYWWKKWFCKQDSDCLAGCVCGPNSFCG (also: bicyclic or more (positions not given here)) [Lgr5ECD-Fc EET I-II 9] — higher, 29.2
- GCGYWWKQWFCKQDSDCLAGCVCGPNGFCG (also: bicyclic or more (positions not given here)) [Lgr5ECD-Fc EET I-II 10] — higher, 25.7
- GCGYWWRLWFCKQDSDCLAGCVCGPNGSCG (also: bicyclic or more (positions not given here)) [Lgr5ECD-Fc EET I-II 14] — lower, 15.3
- GCGYWWRTWFCKQDSDCLAGCVCGPNGFCG (also: bicyclic or more (positions not given here)) [Lgr5ECD-Fc EET I-II 13] — lower, 17.1
- GCGYWWVQWFCKQDSDCLAGCVCGPNGFCD (also: bicyclic or more (positions not given here)) [Lgr5ECD-Fc EET I-II 17] — lower, 10.3
- GCGYWYKQWFCKQDSDCLAGCVCGPNGFCG (also: bicyclic or more (positions not given here)) [Lgr5ECD-Fc EET I-II 8] — higher, 32.0
- GCGYWYLEWFCKQDSDCLAGCVCGPNGFCG (also: bicyclic or more (positions not given here)) [Lgr5ECD-Fc EET I-II 18] — lower, 9.9
- GCGYWYRIWFCKQDSDCLAGCVCGPNGFCG (also: bicyclic or more (positions not given here)) [Lgr5ECD-Fc EET I-II 3] — higher, 43.5
- GCGYWYRVWFCKQDSDCLAGCVCQEPGPCG (also: bicyclic or more (positions not given here)) [Lgr5ECD-Fc EET I-II 2] — higher, 44.3
- GCHEGYWWRQWFCKQDSDCLAGCVCGPNGFCG (also: bicyclic or more (positions not given here)) [Lgr5ECD-Fc EET I-II 16] — lower, 11.5
- GCLFRNLRMACKQDSDCLAGCVCGPNGFCG (also: bicyclic or more (positions not given here)) [Lgr5ECD-Fc EET I-II 24] — lower, 13.9
- GCLYLGWLCKQDSDCLAGCVCDYFWYCVHqS (bicyclic or more) [Lgr5ECD-Fc EET I-II 25] — lower, 19.5
- GCMNSYWYNQWFCKQDSDCLAGCVCGPNGFCG (also: bicyclic or more (positions not given here)) [Lgr5ECD-Fc EET I-II 1] — higher, 47.1
- GCNRSYWFRQWFCKQDSDCLAGCVCGPNGFCG (also: bicyclic or more (positions not given here)) [Lgr5ECD-Fc EET I-II 22] — lower, 4.7
- GCQQGYWYWQWFCKQDSDCLAGCVCGPNGFCG (also: bicyclic or more (positions not given here)) [Lgr5ECD-Fc EET I-II 7] — higher, 33.7
- GCRHGYWFHYWFCKQDSDCLAGCVCGPNGFCG (also: bicyclic or more (positions not given here)) [Lgr5ECD-Fc EET I-II 23] — lower, 3.9
- GCSYWWRVWFCKQDSDCLAGCVCGPNGFCG (also: bicyclic or more (positions not given here)) [Lgr5ECD-Fc EET I-II 19] — lower, 7.2
- GCTSNFWYKQWFCKQDSDCLAGCVCGPNGFCG (also: bicyclic or more (positions not given here)) [Lgr5ECD-Fc EET I-II 5] — higher, 39.0
- GCWVNFWMCKQDSDCLAGCVCRVLDVCG (also: bicyclic or more (positions not given here)) [Lgr5ECD-Fc EET I-II 26] — lower, 11.7
- GCYHGYWYITWFCKQDSDCLAGCVCSQDEQCG (also: bicyclic or more (positions not given here)) [Lgr5ECD-Fc EET I-II 21] — lower, 5.1
- GPAHSTYGRCGGIDYYGPTVCASGTTCLVLWPALSWCLPRSF (also: bicyclic or more (positions not given here)) [Lgr5ECD-Fc CBD 17] — higher, 26.2
- GPTQSAFGPCGGIGYSGHTVCASGTTCQVLSPNVSHCLPGAS (also: bicyclic or more (positions not given here)) [Lgr5ECD-Fc CBD 16] — lower, 6.6
- GPTQSAFGPCGGIGYSGPTVCASGTTCQVLSPDVSQCLPGAS (also: bicyclic or more (positions not given here)) [Lgr5ECD-Fc CBD 6] — higher, 36.0
- GPTQSAFGPCGGIGYSGPTVCASGTTCQVLSPDVSRCLPGAS (also: bicyclic or more (positions not given here)) [Lgr5ECD-Fc CBD 8] — higher, 30.3
- GPTQSAYGQCGGIGYSGPTVCASGTTCQVLWPQVSWCLPGAS (also: bicyclic or more (positions not given here)) [Lgr5ECD-Fc CBD 13] — lower, 14.2
- GPTQSLFGMCGGIGYSGPTVCASGTTCQVLDPTTSQCLPGAS (also: bicyclic or more (positions not given here)) [Lgr5ECD-Fc CBD 2] — higher, 42.7
- GPTQSOYGMCGGIGYSGPTVCASGTTCQVLDPTTSQCLPGAS (bicyclic or more) [Lgr5ECD-Fc CBD 18] — higher, 34.5
- GPTQSPGGICGGIGYSGPTVCASGTTCQVLSPEYSQCLPGAS (also: bicyclic or more (positions not given here)) [Lgr5ECD-Fc CBD 7] — higher, 34.9
- GPTQSQFGMCGGIGYSGPTVCASGTTCQVLDPTTSQCLPGAS (also: bicyclic or more (positions not given here)) [Lgr5ECD-Fc CBD 4] — higher, 40.8
- GPTQSQYGICGGIGYSGPTVCASGTTCQVLSPDWSQCLPGAS (also: bicyclic or more (positions not given here)) [Lgr5ECD-Fc CBD 9] — higher, 23.7
- GPTQSQYGICGGIGYSGPTVCASGTTCQVLSPEFSQCLPGAS (also: bicyclic or more (positions not given here)) [Lgr5ECD-Fc CBD 14] — lower, 12.1
- GPTQSQYGLCGGIGYSGPTVCASGTTCQVLDPTTSQCLPGAS (also: bicyclic or more (positions not given here)) [Lgr5ECD-Fc CBD 15] — lower, 8.9
- GPTQSTWGQCGGIGYSGPTVCASGTTCQVLWPTLSWCLPGAS (also: bicyclic or more (positions not given here)) [Lgr5ECD-Fc CBD 5] — higher, 38.3
- GPTQSTYGQCGGIGYSGPTVCASGTTCQVLWPALSWCLPGAS (also: bicyclic or more (positions not given here)) [Lgr5ECD-Fc CBD 1] — higher, 43.0
- GPTQSVYGICGGIGYSGPTVCASGTTCQVLDPTTSQCLPGAS (also: bicyclic or more (positions not given here)) [Lgr5ECD-Fc CBD 12] — lower, 18.9
- GPTQSVYGICGGIGYSGPTVCASGTTCQVLSPEFSQCLPGAS (also: bicyclic or more (positions not given here)) [Lgr5ECD-Fc CBD 11] — lower, 23.1
- GPTQSVYGMCGGIGYSGPTVCASGTTCQVLDPTTSQCLPGAS (also: bicyclic or more (positions not given here)) [Lgr5ECD-Fc CBD 3] — higher, 41.0
